As usually defined, the IC50 is the concentration that inhibits the measured activity by half.

The first experiment relates to NCI-H358 (K-Ras G12C). In words: CellTiter-Glo cell viability assay, NCI-H358. In kind it is cell-based, human. Conditions: 5-day treatment; read-out: H358 Cell Viability assay data (K-Ras G12C, IC50). Here is the method:
Determination of Cell Viability in RAS Mutant Cancer Cell Lines Protocol: CellTiter-Glo® Cell Viability Assay
Note—The following protocol describes a procedure for monitoring cell viability of K-Ras mutant cancer cell lines in response to a compound of the invention. Other RAS isoforms may be employed, though the number of cells to be seeded will vary based on cell line used.
Test compounds (132.5 nL) were directly dispensed into the assay plates containing cells. […] On day 5, assay plates and their contents were equilibrated to room temperature for approximately 30 minutes. […] Luminescence was measured using the PerkinElmer Enspire. Data were normalized by the following: (Sample signal/Avg. DMSO)*100. The data were fit using a four-parameter logistic fit.
(In general: Cellular ATP, detected with luciferase, serves as a proxy for viable cell number.)
On to `C=CC(=O)N1CC[C@H](C(=O)N(C)[C@H](C(=O)N[C@H]2Cc3cc(O)cc(c3)-c3ccc4c(c3)c(c(-c3cccnc3)n4C(C)(C)C#N)CC(C)(C)COC(=O)[C@@H]3CCCN(N3)C2=O)C(C)C)C1` [Compound A74], for which the IC50 was in the range of 0.01 to 0.1 µM.
The same measure, in the same setting: with `C=CC(=O)Nc1ccc(C(=O)N(C)[C@H](C(=O)N[C@H]2Cc3cc(O)cc(c3)-c3ccc4c(c3)c(c(-c3cccnc3[C@H](C)OC)n4CC)CC(C)(C)COC(=O)[C@@H]3CCCN(N3)C2=O)C(C)C)cn1` [Compound A336] the figure was under 0.01 µM.

Staying with this experiment, now noted: Homo sapiens, NCI-H358, 120 h, 5-day treatment; read-out: H358 Cell Viability assay data (K-Ras G12C, IC50).
Consider `CCn1c(-c2cnccc2COC)c2c3cc(ccc31)-c1cc(O)cc(c1)C[C@H](NC(=O)[C@H](C(C)C)N(C)C(=O)[C@H]1CCN(C(=O)C(C)C)C1)C(=O)N1CCC[C@H](N1)C(=O)OCC(C)(C)C2` [Compound A29], for which the IC50 fell in the range of 0.1 to 1 µM.
With `C=CC(=O)N1CC[C@H](C(=O)N(C)[C@H](C(=O)NC2C[C@H]3CN(CCCO3)c3ccc4c(c3)c(c(-c3cccnc3[C@H](C)OC)n4CC)CC(C)(C)COC(=O)[C@@H]3CCCN(N3)C2=O)C(C)C)C1` (stereo partly drawn) [Compound A429], the half-inhibitory concentration (IC50) is over 10 µM.
Turning to `C=CC(=O)N1CC[C@H](C(=O)N(C)[C@H](C(=O)N[C@H]2Cc3nc(ns3)-c3ccc4c(c3)c(c(-c3cncnc3)n4CC)CC(C)(C)COC(=O)[C@@H]3CCCN(N3)C2=O)C(C)C)C1` [Compound A285], the IC50 is over 10 µM.
Same read-out and setting: in the case of `CCn1c(-c2cnccc2COC)c2c3cc(ccc31)-c1cc(O)cc(c1)C[C@H](NC(=O)[C@H](C(C)C)N(C)C(=O)C1CCN(C)CC1)C(=O)N1CCC[C@H](N1)C(=O)OCC(C)(C)C2` [Compound A84] it was 0.1 to 1 µM; in that of `CCn1c(-c2cnccc2COC)c2c3cc(ccc31)-c1cc(O)cc(c1)C[C@H](NC(=O)[C@@H](OC(=O)N(C)C)C(C)C)C(=O)N1CCC[C@H](N1)C(=O)OCC(C)(C)C2` [Compound A53], 0.1 to 1 µM.
On the same count and under the same terms, with `CCn1c(-c2ccccc2CN(C)C)c2c3cc(ccc31)-c1cc(O)cc(c1)C[C@H](NC(=O)[C@@H](C(C)C)N(C)C(=O)c1ncc(NC(=O)/C=C/CN(C)C)n1C)C(=O)N1CCC[C@H](N1)C(=O)OCC(C)(C)C2` [Compound A126] the figure was over 10 µM.
Turning to `C=CC(=O)N1CC[C@H](C(=O)N(C)[C@H](C(=O)N[C@H]2Cc3cc(O)cc(c3)-c3cc4c(c(-c5ccccc5CCOC)n(CC)c4cn3)CC(C)(C)COC(=O)[C@@H]3CCCN(N3)C2=O)C(C)C)C1` [Compound A102], the concentration for half-maximal inhibition (IC50) was over 10 µM.
Still for that read-out and setting: with `C=CC(=O)N1CC[C@H](C(=O)N(C)[C@H](C(=O)N(C)[C@H]2Cc3cc(O)cc(c3)-c3ccc4c(c3)c(c(-c3cccnc3COC)n4CC)CC(C)(C)COC(=O)[C@@H]3CCCN(N3)C2=O)C(C)C)C1` [Compound A230] the figure was over 10 µM; with `CCn1c(-c2cccnc2[C@H](C)OC)c2c3cc(ccc31)-c1cccc(c1)C[C@H](NC(=O)[C@H](C(C)C)N(C)C(=O)[C@H]1CCN(C(=O)CN(C)C)C1)C(=O)N1CCC[C@H](N1)C(=O)OCC(C)(C)C2` [Compound A96], under 0.01 µM; with `CCn1c(-c2ccccc2CN(C)C)c2c3cc(ccc31)-c1cc(O)cc(c1)C[C@H](NC(=O)[C@H](C(C)C)N(C)C(=O)c1ncc(NC(=O)/C=C/CN(C)C)s1)C(=O)N1CCC[C@H](N1)C(=O)OCC(C)(C)C2` (atropisomer, axis not shown) [Compound A163], over 10 µM.
The same measure, in the same setting: in the case of `CCn1c(-c2cccnc2[C@H](C)OC)c2c3cc(ccc31)-c1csc(n1)C[C@H](NC(=O)C1(F)COC1)C(=O)N1CCC[C@H](N1)C(=O)OCC(C)(C)C2` [Compound A320] it was 0.01 to 0.1 µM.
The same measure, in the same setting: in the case of `CO[C@@H](C)c1ncccc1-c1nc2ccc3cn2c1CC(C)(C)COC(=O)[C@@H]1CCCN(N1)C(=O)[C@@H](NC(=O)[C@H](C(C)C)N(C)C(=O)[C@H]1CCN(C(=O)C#CC(C)(C)N(C)C)C1)Cc1cccc-3c1` [Compound A311] it was over 10 µM.
As for `C=CC(=O)N1CC[C@H](C(=O)N(C)[C@H](C(=O)N[C@H]2Cc3cc(O)cc(c3)-c3ccc4c(c3)c(c(-c3cncnc3)n4CC)CC(C)(C)COC(=O)[C@@H]3CCCN(N3)C2=O)C(C)C)O1` [Compound A180], the half-inhibitory concentration (IC50) was over 10 µM.
Still for that read-out and setting: with `CCn1c(-c2ccccc2CCOC)c2c3cc(ccc31)-c1cc(O)cc(c1)C[C@H](NC(=O)[C@H](C(C)C)N(C)C(=O)c1ccc(NC(=O)/C=C/CN(C)C)cn1)C(=O)N1CCC[C@H](N1)C(=O)OCC(C)(C)C2` [Compound A224] the figure was over 10 µM.
Same read-out and setting: in the case of `C=CC(=O)N1CC[C@H](C(=O)N(C)[C@H](C(=O)N[C@H]2Cc3cc(O)cc(c3)-c3ccc4c(c3)c(c(-c3ccc(C5CCN(C)CC5)cc3)n4CC)CC(C)(C)COC(=O)[C@@H]3CCCN(N3)C2=O)C(C)C)C1` [Compound A39] it was 0.01 to 0.1 µM; in that of `C=CC(=O)N1CC[C@H](C(=O)N(C)[C@H](C(=O)N[C@H]2Cc3cc(O)cc(c3)-c3ccc4c(c3)c(c(-c3ccc5c(c3)CCN(C)C5)n4CC)CC(C)(C)COC(=O)[C@@H]3CCCN(N3)C2=O)C(C)C)C1` [Compound A40], 0.01 to 0.1 µM.
Still for that read-out and setting: with `COCc1ncccc1-c1nc2ccc3cc2n1CC(C)(C)COC(=O)[C@@H]1CCCN(N1)C(=O)[C@@H](NC(=O)[C@H](C(C)C)N(C)C(=O)[C@H]1CCN(C(=O)C#CCN2CCOCC2)C1)Cc1cc(O)cc-3c1` [Compound A188] the figure was over 10 µM; with `CCn1c(-c2cnccc2COC)c2c3cc(ccc31)-c1cc(O)cc(c1)C[C@H](NC(=O)[C@H](C(C)C)N(C)C(=O)[C@H]1CCN(C(=O)C3COC3)C1)C(=O)N1CCC[C@H](N1)C(=O)OCC(C)(C)C2` [Compound A9], 0.1 to 1 µM.
Regarding `CCn1c(-c2cccnc2[C@H](C)OC)c2c3cc(ccc31)-c1cc(O)cc(c1)C[C@H](NC(=O)[C@H](C(C)C)N(C)C(=O)[C@H]1CCN(C(=O)C#C[C@@H]3CCCN3C)C1)C(=O)N1CCC[C@H](N1)C(=O)OCC(C)(C)C2` [Compound A247], the IC50 was under 0.01 µM.
Still for that read-out and setting: with `C=CC(=O)N1CC[C@H](C(=O)Nc2ccccc2C(=O)N[C@H]2Cc3cc(O)cc(c3)-c3ccc4c(c3)c(c(-c3cnccc3COC)n4CC)CC(C)(C)COC(=O)[C@@H]3CCCN(N3)C2=O)C1` [Compound A229] the figure was over 10 µM.
For the compound `C=CC(=O)N1CC[C@H](C(=O)N(C)[C@H](C(=O)N[C@H]2CC3=NN=C(S3)c3ccc4c(c3)c(c(-c3cccnc3[C@H](C)OC)n4CC)CC(C)(C)COC(=O)[C@@H]3CCCN(N3)C2=O)C(C)C)C1` [Compound A248], the IC50 is over 10 µM.
In the case of `C=CC(=O)N1CC[C@H](C(=O)N(C)[C@H](C(=O)N[C@H]2Cc3cccc(c3)-c3ccc4c(c3)c(c(-c3cc(C5CCN(C)CC5)cnc3[C@H](C)OC)n4CC)CC(C)(C)COC(=O)[C@@H]3CCCN(N3)C2=O)C(C)C)C1` [Compound A515], the IC50 is under 0.01 µM.
Turning to `CCn1c(-c2cccnc2[C@H](C)OC)c2c3cc(ccc31)-c1csc(n1)C[C@H](NC(=O)[C@H](C(C)C)N(C)C(=O)N1C3CC1CN(C)C3)C(=O)N1CCC[C@H](N1)C(=O)OCC(C)(C)C2` [Compound A541], the IC50 lay within 0.01 to 0.1 µM.

The same experiment, now with this note: Homo sapiens, NCI-H358, 120 h, read-out: H358 Cell Viability assay data (K-Ras G12C, IC50, uM), 5-day treatment.
With `C=CC(=O)N1CC[C@H](C(=O)N(C)[C@H](C(=O)N[C@H]2Cc3cc(O)cc(c3)-c3ccc4c(c3)c(c(-c3cc(C)cnc3[C@H](C)OC)n4CC)CC(C)(C)COC(=O)[C@@H]3CCCN(N3)C2=O)C(C)C)C1` [Compound A167], the IC50 is under 0.01 µM.

Still in this experiment, the particulars now being: read-out: H358 Cell Viability assay data (K-Ras G12C, IC50); 5-day treatment.
In the case of `CC#CC(=O)N1CC[C@H](C(=O)N(C)[C@@H](C(=O)N[C@H]2Cc3cc(O)cc(c3)-c3ccc4c(c3)c(c(-c3cccnc3[C@H](C)OC)n4CC)CC(C)(C)COC(=O)[C@@H]3CCCN(N3)C2=O)C(C)C)C1` [Compound A198], the half-inhibitory concentration (IC50) is over 10 µM.

The values above are taken from patent US20250195521A1 (Revolution Medicines, Inc., priority 2020, published 2025).
